Columns and labels:
Assay type in all cases: cell-based
[1] = test system: M308; assay: Melanoma colony formation, M308; conditions: 10 nM, M308 (second value of pair)
Description: (§1) To determine if MI-181 had broad anti-cancer activity, we treated a diverse panel of cancer cell lines including cervical adenocarcinoma (HeLa), breast adenocarcinoma (MCF7), melanoma (M233), osteosarcoma (U205), acute lymphoblastic leukemia (CCRF-CEM), non-small cell lung carcinoma (NCI-H460), and breast adenocarcinoma (MCF7) with MI-181 and determined its cell viability IC50 (FIGS. 13A and 13B). […] Therefore, the efficacy of MI-181 was analyzed in a panel of melanoma cell lines with defined genetic backgrounds including BRAF^V600E and NRAS^Q61L mutations and varied sensitivities to Vemurafenib (BRAF inhibitor) and Trametinib (MEK inhibitor), which are currently used to treat BRAF^V600E melanomas^43,44 (FIG. 10c). […] As a general trend BRAF^V600E cell lines were slightly more sensitive than NRAS^Q61L cell lines and MI-181 was effective in Vemurafenib and Trametinib resistant cell lines (FIG. 10c and Table 3). Finally, we tested the ability of MI-181 to inhibit melanoma colony formation using the M233 and M308 cell lines (both resistant to Vemurafenib). Indeed, MI-181 was a potent inhibitor of colony formation (percentage colony formation for 10 nM MI-181=0.2±0.1 and 0.8±0.7; for 10 nM colchicine=0.1±0.06 and 1.5±0.5; and for 10 nM Vemurafenib=94±7 and 102±5) (FIG. 10d). Thus, MI-181 is a potent inhibitor of melanoma cell lines.

[2] = test system: M238; assay: CellTiter-Glo cell viability, M238
Description: as §1, with “lines. […]” for “lines.”

[3] = test system: M243; assay: CellTiter-Glo cell viability, M243
Description: as §1, with “lines. […]” for “lines.”

[4] = test system: M207; assay: CellTiter-Glo cell viability, M207
Description: as §1, with “lines. […]” for “lines.”

[5] = test system: M376; assay: CellTiter-Glo cell viability, M376
Description: as §1, with “lines. […]” for “lines.”

[6] = test system: M233; assay: Melanoma colony formation, M233; conditions: 10 nM, M233 (first value of pair)
Description: as §1

[7] = test system: M296; assay: CellTiter-Glo cell viability, M296
Description: as §1, with “lines. […]” for “lines.”

[8] = test system: diverse panel of cancer cell lines; assay: Cell viability in a diverse panel of cancer cell lines; conditions: HeLa, M233, U205, CCRF-CEM, NCI-H460; MCF7 excepted; read-out: cell viability IC50 across most cancer cell lines
Description: as §1, with “lines. […]” for “lines.”

[9] = test system: M397; assay: CellTiter-Glo cell viability, M397
Description: as §1, with “lines. […]” for “lines.”

[10] = test system: M229; assay: CellTiter-Glo cell viability, M229
Description: as §1, with “lines. […]” for “lines.”

IC50 [8]: 30 to 360 nM
SMILES: Cc1cc2nc(/C=C/c3cccnc3)sc2cc1C [MI-181]
percentage colony formation [1]: 0.8±0.7
IC50 [2]: 30.5 nM
IC50 [3]: 26 nM
IC50 [4]: 41.7 nM
IC50 [5]: 39.7 nM
percentage colony formation [6]: 0.2±0.1
IC50 [7]: 36.7 nM
IC50 [9]: 18.1 nM
IC50 [10]: 36.7 nM
